# Earlier results as cited in article PMC10879402, “Comparative Study of Dermal Pharmacokinetics Between Topical Drugs Using Open Flow Microperfusion in a Pig Model” (Pharmaceutical Research, 2023).
# Key:
# [1] = design: method as in ref 52 (PF-06263276), ref 51 (PF-06763809); settings: formulation used in this study (PF-06263276 4% solution, PF-06763809 2.3%); ref 52 (PF-06263276), ref 51 (PF-06763809)
# [2] = design: method as in PMID 32949620; settings: topical application of a […] cream formulation
# [3] = design: method as in ref 64 (a number printed in a supplementary file, which may have a reference list of its own: not looked up in the article's list); settings: topical brepocitinib 0.1%, 0.3%, 1% and 3%
smiles,measurement,setting,value
CCc1cc(O)c(F)cc1-c1ccc2c(-c3nc4c([nH]3)CCN(C(=O)c3cnc(N5CCCCC5)cn3)C4)n[nH]c2c1 [PF-06263276],efficacy in human psoriasis plaque test,[1],no efficacy
N#CC[C@H](C1CCCC1)n1cc(-c2ncnc3[nH]ccc23)cn1 [ruxolitinib],dermal ruxolitinib concentration (total),[2],63 µM
same,dermal ruxolitinib concentration (unbound),[2],12 µM
Cn1cc(Nc2nccc(N3C[C@H]4CC[C@@H](C3)N4C(=O)[C@@H]3CC3(F)F)n2)cn1 [brepocitinib],outcome in psoriasis clinical study,[3],did not meet the primary and secondary endpoints
